Data taken from publication PMC7156458, “Synthetic biology based construction of biological activity-related library of fungal decalin-containing diterpenoid pyrones” (Nature Communications, 2020).
Read-outs that look alike come from different tables or passages of the source.

Assays:
[1] = cytotoxicity in Drosophila DL1 cells; format: cell-based; conditions: Drosophila, DL1 cells (embryonic macrophage-derived), DL1 cells
Experimental: (§1) We screened the DDPs on the Drosophila assay system for cytotoxicity, inhibitory activity of innate immune signalling and insecticidal activity. The cytotoxicity of the DDPs was evaluated using two cell lines, embryonic macrophage-derived DL1 cells[58]–[60] and larval blood cell-derived l(2)mbn cells, and their IC50 values are listed in Supplementary Table 23.

[2] = system: DL1 cells; assay: cytotoxicity in Drosophila DL1 cells; format: cell-based; conditions: DL1 cells; for IC50: Drosophila melanogaster, cytotoxicity
Experimental: as §1

[3] = system: human immunodeficiency virus-1 (HIV-1); assay: anti-HIV MAGI assay; format: cell-based; conditions: Human immunodeficiency virus 1, MAGI, anti-HIV
Text: We examined the inhibitory activities of DDPs against various species of bacteria (both gram-negative and gram-positive bacteria), fungi and viruses. […] In contrast, preliminary screening of the DDPs for anti-viral agents with hepatitis B virus (HBV), measles virus (MV), Epstein-Barr virus (EBV), herpes simplex virus (HSV) and human immunodeficiency virus-1 (HIV-1) indicated their selective inhibition of HIV.

[4] = system: A549; assay: cells; parameters: species or system JFCR39 human cancer cell lines; JFCR39 panel growth inhibition, sulforhodamine B total protein after 48 h; conditions: Homo sapiens, A549, 48 h
In short: (§2)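 Human cancer lines of the JFCR39 panel grown in RPMI-1640 with 5% FBS at 37°C, 5% CO2. Total cellular protein measured by sulforhodamine B after 48 hours of drug exposure; GI50 from duplicate assays.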

[5] = system: DMS273; assay: cells; parameters: species or system JFCR39 human cancer cell lines; JFCR39 panel growth inhibition, sulforhodamine B total protein after 48 h; conditions: Homo sapiens, DMS-273, 48 h
In short: as §2

[6] = system: HCC2998; assay: cells; parameters: species or system JFCR39 human cancer cell lines; JFCR39 panel growth inhibition, sulforhodamine B total protein after 48 h; conditions: Homo sapiens, HCC 2998, 48 h
In short: as §2

[7] = system: HCT-15; assay: cells; parameters: species or system JFCR39 human cancer cell lines; JFCR39 panel growth inhibition, sulforhodamine B total protein after 48 h; conditions: Homo sapiens, HCT-15, 48 h
In short: as §2

[8] = system: HT-29; assay: cells; parameters: species or system JFCR39 human cancer cell lines; JFCR39 panel growth inhibition, sulforhodamine B total protein after 48 h; conditions: Homo sapiens, HT-29, 48 h
In short: as §2

[9] = system: MKN-A; assay: cells; parameters: species or system JFCR39 human cancer cell lines; JFCR39 panel growth inhibition, sulforhodamine B total protein after 48 h; conditions: 48 h
In short: as §2

[10] = system: MKN-B; assay: cells; parameters: species or system JFCR39 human cancer cell lines; JFCR39 panel growth inhibition, sulforhodamine B total protein after 48 h; conditions: 48 h
In short: as §2

[11] = system: MKN45; assay: cells; parameters: species or system JFCR39 human cancer cell lines; JFCR39 panel growth inhibition, sulforhodamine B total protein after 48 h; conditions: Homo sapiens, MKN-45, 48 h
In short: as §2

[12] = system: OVCAR-4; assay: cells; parameters: species or system JFCR39 human cancer cell lines; JFCR39 panel growth inhibition, sulforhodamine B total protein after 48 h; conditions: Homo sapiens, OVCAR-4, 48 h
In short: as §2

[13] = system: RXF-631L; assay: cells; parameters: species or system JFCR39 human cancer cell lines; JFCR39 panel growth inhibition, sulforhodamine B total protein after 48 h; conditions: RXF-631L, 48 h
In short: as §2

[14] = system: SF-295; assay: cells; parameters: species or system JFCR39 human cancer cell lines; JFCR39 panel growth inhibition, sulforhodamine B total protein after 48 h; conditions: Homo sapiens, SF-295, 48 h
In short: as §2

[15] = system: SF-539; assay: cells; parameters: species or system JFCR39 human cancer cell lines; JFCR39 panel growth inhibition, sulforhodamine B total protein after 48 h; conditions: Homo sapiens, SF-539, 48 h
In short: as §2

[16] = system: SK-OV-3; assay: cells; parameters: species or system JFCR39 human cancer cell lines; JFCR39 panel growth inhibition, sulforhodamine B total protein after 48 h; conditions: Homo sapiens, SK-OV-3, 48 h
In short: as §2

[17] = replicate 1, relative to DMSO 1%, read-out: % viability, viability 1
[18] = replicate 2, relative to DMSO 1%, read-out: % viability, viability 2
[19] = average of two replicates, read-out: IC50 Average
[20] = replicate 1, read-out: IC50 (1)
[21] = replicate 2, read-out: IC50 (2)
[22] = average of numeric determinations, read-out: Avg. EC50

C=C1CC[C@@H]2[C@](C)(CC[C@H]3O[C@H](C=C(C)C)C[C@@]23C)[C@@H]1Cc1c(OC)oc(CO)c(C)c1=O [Compound 20] gave a viability at 0.04 µM [1, 17] of 191%, a viability at 0.04 µM [1, 18] of 209% and a viability at 0.2 µM [1, 17] of 171%. It also gave a viability at 0.2 µM [1, 18] of 166%, a viability at 1 µM [1, 17] of 20.6% and a viability at 1 µM [1, 18] of 19.9%. The viability at 4 µM [1, 17] was 20.4%, the viability at 4 µM [1, 18] was 21.2% and the viability at 10 µM [1, 17] was 20.5%. It also gave a viability at 10 µM [1, 18] of 19.2%, a viability at 20 µM [1, 17] of 20.5% and a viability at 20 µM [1, 18] of 24.6%. The “Luminescence Raw1” value ([2]; 0.04 µM, replicate 1) was 2619350, the “Luminescence Raw2” value ([2]; 0.04 µM, replicate 2) was 2864984 and the “Luminescence Raw1” value ([2]; 0.2 µM, replicate 1) was 2345231. For the same molecule, the “Luminescence Raw2” value ([2]; 0.2 µM, replicate 2) was 2278506, the “Luminescence Raw1” value ([2]; 1 µM, replicate 1) was 282109 and the “Luminescence Raw2” value ([2]; 1 µM, replicate 2) was 273095. For the same molecule, the “Luminescence Raw1” value ([2]; 4 µM, replicate 1) was 279585, the “Luminescence Raw2” value ([2]; 4 µM, replicate 2) was 290402 and the “Luminescence Raw1” value ([2]; 10 µM, replicate 1) was 280667. For the same molecule, the “Luminescence Raw2” value ([2]; 10 µM, replicate 2) was 263720, the “Luminescence Raw1” value ([2]; 20 µM, replicate 1) was 281027 and the “Luminescence Raw2” value ([2]; 20 µM, replicate 2) was 336916. For the same molecule, the IC50 [2, 19] was 0.269 µM, the IC50 ([2]; average±SEM, read-out: IC50) was 0.27 ± 0.03 µM and the IC50 [2, 20] was 0.299 µM. It also gave an IC50 [2, 21] of 0.238 µM, an EC50 [3, 22] of 4.07 µM and a GI50 [4] of 11.4 µM. For the same molecule, the GI50 [5] was 0.0893 µM, the GI50 [6] was 15.9 µM and the GI50 [7] was 10.1 µM. The GI50 [8] was 14.6 µM, the GI50 [9] was 0.0986 µM and the GI50 [10] was 1.06 µM. It also gave a GI50 [11] of 14.5 µM, a GI50 [12] of 11.9 µM and a GI50 [13] of 17 µM. It also gave a GI50 [14] of 11.2 µM, a GI50 [15] of 12.3 µM and a GI50 [16] of 13.3 µM.

For C=C1CC[C@H]2[C@]3(C)C[C@@H](C=C(C)C)O[C@H]3CC[C@]2(C)[C@@H]1Cc1c(OC)oc(CO)c(C)c1=O [Compound 17], the viability at 0.04 µM [1, 17] was 195%, the viability at 0.04 µM [1, 18] was 207% and the viability at 0.2 µM [1, 17] was 174%. The viability at 0.2 µM [1, 18] was 181%, the viability at 1 µM [1, 17] was 94.2% and the viability at 1 µM [1, 18] was 35.7%. It also gave a viability at 4 µM [1, 17] of 19.3%, a viability at 4 µM [1, 18] of 20.1% and a viability at 10 µM [1, 17] of 18.3%. The viability at 10 µM [1, 18] was 18.8%, the viability at 20 µM [1, 17] was 15.2% and the viability at 20 µM [1, 18] was 19.6%. For the same molecule, the “Luminescence Raw1” value ([2]; 0.04 µM, replicate 1) was 2678864, the “Luminescence Raw2” value ([2]; 0.04 µM, replicate 2) was 2844064 and the “Luminescence Raw1” value ([2]; 0.2 µM, replicate 1) was 2387791. For the same molecule, the “Luminescence Raw2” value ([2]; 0.2 µM, replicate 2) was 2484453, the “Luminescence Raw1” value ([2]; 1 µM, replicate 1) was 1292136 and the “Luminescence Raw2” value ([2]; 1 µM, replicate 2) was 490161. The “Luminescence Raw1” value ([2]; 4 µM, replicate 1) was 264802, the “Luminescence Raw2” value ([2]; 4 µM, replicate 2) was 275258 and the “Luminescence Raw1” value ([2]; 10 µM, replicate 1) was 251461. The “Luminescence Raw2” value ([2]; 10 µM, replicate 2) was 258312, the “Luminescence Raw1” value ([2]; 20 µM, replicate 1) was 208914 and the “Luminescence Raw2” value ([2]; 20 µM, replicate 2) was 269129. The IC50 [2, 19] was 2.78 µM, the IC50 ([2]; average±SEM, read-out: IC50) was 2.78 ± 0.68 µM and the IC50 [2, 20] was 3.46 µM. For the same molecule, the IC50 [2, 21] was 2.1 µM, the EC50 ([3]; MAGI assay, read-out: EC50) was under 0.2 µM and the EC50 [3, 22] was 1.36 µM. For the same molecule, the GI50 [4] was 12.3 µM, the GI50 [5] was 0.713 µM and the GI50 [6] was 14 µM. The GI50 [7] was 0.942 µM, the GI50 [8] was 14.3 µM and the GI50 [9] was 0.408 µM. It also gave a GI50 [10] of 10 µM, a GI50 [11] of 14 µM and a GI50 [12] of 12.2 µM. For the same molecule, the GI50 [13] was 14.4 µM, the GI50 [14] was 10.7 µM and the GI50 [15] was 12.2 µM. For the same molecule, the GI50 [16] was 12.1 µM.
